Results as given in patent US10077261B2, “Imidazolin-5-one derivative useful as FASN inhibitors for the treatment of cancer” (Janssen Pharmaceutica NV, priority 2012, dated 2018).

Legend:
[1] = molecular target: T1, hFASN enzyme (full length) (Homo sapiens, UniProt P49327); assay: Fatty Acid Synthase (FASN) inhibition scintillation proximity assay; assay type: biochemical; details: for inhibition at 10 µM: read-out: Human FASN % inhibition @ 10 μM, 10 μM test compound; for IC50: read-out: Human FASN pIC50 (converted)
T1 construct: 10 μL hFASN enzyme (full length, 300 ng, purified in house); made in house
T1 sequence (P49327 whole entry): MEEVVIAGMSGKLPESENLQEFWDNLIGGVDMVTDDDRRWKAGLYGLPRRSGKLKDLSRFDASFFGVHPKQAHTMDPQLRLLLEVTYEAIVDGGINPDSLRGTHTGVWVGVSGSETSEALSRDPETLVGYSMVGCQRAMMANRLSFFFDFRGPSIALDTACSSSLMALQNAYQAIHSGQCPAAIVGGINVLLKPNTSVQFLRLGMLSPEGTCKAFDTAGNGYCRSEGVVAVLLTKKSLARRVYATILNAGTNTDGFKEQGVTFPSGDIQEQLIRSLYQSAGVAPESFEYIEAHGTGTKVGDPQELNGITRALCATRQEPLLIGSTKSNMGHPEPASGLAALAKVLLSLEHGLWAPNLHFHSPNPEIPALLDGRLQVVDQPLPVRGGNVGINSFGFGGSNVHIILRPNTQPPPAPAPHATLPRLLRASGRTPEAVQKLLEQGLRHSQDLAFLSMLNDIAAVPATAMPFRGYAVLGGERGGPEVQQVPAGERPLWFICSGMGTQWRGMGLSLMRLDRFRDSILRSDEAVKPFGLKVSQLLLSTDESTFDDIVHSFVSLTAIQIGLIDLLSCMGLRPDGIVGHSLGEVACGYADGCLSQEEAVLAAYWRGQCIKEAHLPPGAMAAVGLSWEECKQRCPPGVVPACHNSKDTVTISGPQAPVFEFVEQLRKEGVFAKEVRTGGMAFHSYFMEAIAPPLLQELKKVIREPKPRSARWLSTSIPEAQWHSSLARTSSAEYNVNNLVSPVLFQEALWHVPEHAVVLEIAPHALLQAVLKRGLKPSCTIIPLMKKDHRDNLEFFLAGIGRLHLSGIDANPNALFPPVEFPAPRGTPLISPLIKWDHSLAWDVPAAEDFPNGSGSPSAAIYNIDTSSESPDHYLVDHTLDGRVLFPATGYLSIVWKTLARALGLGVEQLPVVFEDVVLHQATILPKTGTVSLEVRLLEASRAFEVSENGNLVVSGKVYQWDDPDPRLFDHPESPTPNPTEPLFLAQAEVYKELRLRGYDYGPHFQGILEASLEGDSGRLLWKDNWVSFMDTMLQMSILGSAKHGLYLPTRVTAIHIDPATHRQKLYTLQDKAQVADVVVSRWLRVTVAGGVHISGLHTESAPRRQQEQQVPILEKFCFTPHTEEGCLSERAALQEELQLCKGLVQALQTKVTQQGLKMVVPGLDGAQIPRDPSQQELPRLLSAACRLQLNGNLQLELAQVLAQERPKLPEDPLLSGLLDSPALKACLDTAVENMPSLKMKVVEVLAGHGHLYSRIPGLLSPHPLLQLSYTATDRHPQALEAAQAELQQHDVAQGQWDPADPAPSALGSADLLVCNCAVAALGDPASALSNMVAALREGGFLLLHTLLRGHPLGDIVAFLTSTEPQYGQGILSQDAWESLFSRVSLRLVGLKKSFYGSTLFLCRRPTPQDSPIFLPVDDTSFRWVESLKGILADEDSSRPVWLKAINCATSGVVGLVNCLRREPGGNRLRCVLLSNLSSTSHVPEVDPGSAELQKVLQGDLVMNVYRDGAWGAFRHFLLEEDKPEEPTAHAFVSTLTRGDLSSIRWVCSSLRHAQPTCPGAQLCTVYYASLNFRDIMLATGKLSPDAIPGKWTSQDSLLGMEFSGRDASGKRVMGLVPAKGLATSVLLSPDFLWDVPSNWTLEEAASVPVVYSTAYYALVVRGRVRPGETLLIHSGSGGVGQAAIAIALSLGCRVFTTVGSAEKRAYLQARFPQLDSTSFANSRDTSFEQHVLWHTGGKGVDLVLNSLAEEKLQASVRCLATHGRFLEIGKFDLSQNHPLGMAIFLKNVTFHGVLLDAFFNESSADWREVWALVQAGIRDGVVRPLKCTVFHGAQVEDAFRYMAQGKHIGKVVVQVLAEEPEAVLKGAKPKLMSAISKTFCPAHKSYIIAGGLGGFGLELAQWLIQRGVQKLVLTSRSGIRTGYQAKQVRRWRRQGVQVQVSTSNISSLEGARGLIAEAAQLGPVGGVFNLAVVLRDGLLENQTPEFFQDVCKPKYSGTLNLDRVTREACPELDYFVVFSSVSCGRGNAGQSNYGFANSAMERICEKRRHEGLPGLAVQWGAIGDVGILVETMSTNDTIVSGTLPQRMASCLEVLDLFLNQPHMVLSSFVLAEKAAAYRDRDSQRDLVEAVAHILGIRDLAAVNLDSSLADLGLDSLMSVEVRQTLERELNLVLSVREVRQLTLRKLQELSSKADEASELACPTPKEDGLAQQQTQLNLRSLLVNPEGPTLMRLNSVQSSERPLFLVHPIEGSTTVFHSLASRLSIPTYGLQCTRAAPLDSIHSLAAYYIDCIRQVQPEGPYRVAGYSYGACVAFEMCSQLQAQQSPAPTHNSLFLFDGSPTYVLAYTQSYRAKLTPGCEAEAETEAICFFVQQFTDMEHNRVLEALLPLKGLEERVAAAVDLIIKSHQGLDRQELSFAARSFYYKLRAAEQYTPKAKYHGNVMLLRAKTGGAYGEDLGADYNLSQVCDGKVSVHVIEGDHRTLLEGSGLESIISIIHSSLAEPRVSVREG
How it was run: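 Proximity read-out: hydrophobic ^3H-palmitate formed from ^3H-acetyl-CoA and malonyl-CoA binds streptavidin imaging beads, imaged at 610±20 nm at least 24 h after stopping. Enzyme was in-house purified full-length hFASN, 300 ng, in pH 7.5 phosphate/DTT buffer; compound series 30 μM down to 0.01 μM, normalized to controls, 4-parameter fit.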

[2] = system: A2780 ovarian cells; assay: A2780 ovarian cell proliferation assay in lipid reduced medium, with palmitate (MTT); assay type: cell-based; details: Homo sapiens, A2780, 96 h; read-out: pIC50 A2780 Ovarian Cell, With Palmitate (converted)
How it was run: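 In this palmitate-supplemented format, compound dilutions (30 μM down to 0.01 μM) are added to cells in lipid-reduced serum with 25 μM palmitate, 0.2% fatty-acid-free BSA and 0.25% ethanol. After four days (96 h) MTT absorbance at 544 nm is recorded and fitted by minimum sum of squares.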

[3] = system: A2780 ovarian cells; assay: A2780 ovarian cell proliferation assay in lipid reduced medium, without palmitate (MTT); assay type: cell-based; details: Homo sapiens, A2780, 96 h; read-out: pIC50 A2780 Ovarian Cell, Without Palmitate (converted)
[4] = system: LNCaP-Vancouver prostate cells; assay: In vitro LNCaP Vancouver prostate cell proliferation assay in lipid reduced medium; assay type: cell-based; details: read-out: pIC50 LNCaP_Vancouver prostate cell (converted)
Procedure: LNCaP-Vancouver prostate cells were obtained from the Vancouver Prostate Cancer Centre. Cells were maintained in RPMI-1640, 10% Fetal Calf Serum (FCS, Hyclone), 2 mM glutamine and 50 μg/ml Gentamicin.
For the proliferation experiment 1500 LNCaP-Vancouver cells per well were seeded in a 384-well black with clear bottom plate (costar 3712BC) in 40 μl RPMI-1640, 10% Lipid reduced serum (LRS, Hyclone), 50 μg/ml Gentamicin and 2 mM Glutamine and incubated at 37° C., 5% CO2. The next day 10 μl of test compound/DMSO diluted in medium was added (3E-5M, 1E-5M, 3E-6M, 1E-6M, 3E-7M, 1E-7M, 3E-8M, 1E-8M final concentration). Compounds were tested in duplicate. After 96 h incubation at 37° C., 5% CO2 25 μl ATP-glow mix was added. The plate was incubated for 30 min at 37° C. and luminescence was measured with the Envision.
Analysis: Determination of pIC50 Values
pIC50 values were calculated as follows.
where mLC and mHC are the means of the low control wells and high control wells on the plate, after manual exclusion of outliers. The relation between the % Controlmin values and concentration was fitted to a 4-parameter logistic curve using a non-linear least squares regression method to determine the pIC50 value. Outlying data points were excluded manually to get a correct fit. The pIC50 corresponds to −log 10(IC50), if the IC50 is expressed in molar units (http://www.ncbi.nlm.nih.gov/books/NBK91994). The IC50 parameter was always determined by non-linear regression, but one or more of the other parameters may have been held fixed on a relevant input value, such as 0 for the bottom values.
For dose response curves with FASN inhibitors in LNCaP-Vancouver or PC-3M-Luc-C6 cells the curves bottom out around 30 to 40% of the control value. A standard fit PL2, forcing the lower bound to this level was used.
Representative compounds of the present invention were tested according to the procedure as described in Biological Example 4a and 4b above, with results as listed in Table 9, below.

[5] = molecular target: Fatty Acid Synthase Keto-reductase Domain (FASN KR) (Homo sapiens, UniProt P49327); assay: Fatty Acid Synthase keto-reductase domain (FASN KR) inhibition, NADPH oxidation at 340 nm
Sequence of Fatty Acid Synthase Keto-reductase Domain (FASN KR) (P49327 whole entry, the tested form may be a part): as the sequence (P49327 whole entry) above
Procedure: After 20 minutes incubation at room temperature the plate was measured again (T2).
The decrease in absorbance was calculated as (Absorbance before incubation T1)−(Absorbance following incubation T2).
A plot of Controlmin versus test compound concentration was fitted to a 4-parameter logistic curve using a non-linear least squares regression method.

In the case of `Cn1cc2cc(-c3ccc(C4=NC5(CC5)C(=O)N4CC4CN(C(=O)C5CC5)C4)c(F)c3)ccc2n1` [compound 644, 6-{[1-(Cyclopropylcarbonyl)azetidin-3-yl]methyl}-5-[2-fluoro-4-(2-methyl-2H-indazol-5-yl)phenyl]-4,6-diazaspiro[2.4]hept-4-en-7-one], the inhibition at 10 µM [1] is reported as 97%, the IC50 [1] is reported as 178 nM and the IC50 [2] is reported as > 10000 nM. For the same compound, the IC50 [3] was 162 nM, the IC50 [4] was 2820 nM and the IC50 [5] was 1450 nM.

In the case of `O=C(C1CC1)N1CC[C@@H](CN2C(=O)C3(CCOCC3)N=C2c2ccc(-c3ccc4occc4c3)cc2)C1` [compound 667, 2-[4-(1-Benzofuran-5-yl)phenyl]-3-{[(3R)-1-(cyclopropylcarbonyl)pyrrolidin-3-yl]methyl}-8-oxa-1,3-diazaspiro[4.5]dec-1-en-4-one], the inhibition at 10 µM [1] is reported as 97%, the IC50 [1] is reported as 155 nM and the IC50 [2] is reported as > 10000 nM. It also gave an IC50 [3] of ~1000 nM, an IC50 [4] of 1780 nM and an IC50 [5] of 339 nM.

In the case of `Cc1cc(C2=NC3(CC3)C(=O)N2C[C@@H]2CCN(C(=O)C3CC3)C2)ccc1-c1ccc2oc(C#N)cc2c1` [compound 476, 5-[4-(6-{[(3R)-1-(Cyclopropylcarbonyl)pyrrolidin-3-yl]methyl}-7-oxo-4,6-diazaspiro[2.4]hept-4-en-5-yl)-2-methylphenyl]-1-benzofuran-2-carbonitrile], the inhibition at 10 µM [1] is reported as 90%, the IC50 [1] is reported as 263 nM and the IC50 [2] is reported as > 10000 nM. It also gave an IC50 [3] of ~2040 nM, an IC50 [4] of 3720 nM and an IC50 [5] of 617 nM.

In the case of `Cn1ncc2cc(-c3ccc(C4=NC5(CC5)C(=O)N4C[C@@H]4CCN(C(=O)C5CC5)C4)nc3)ccc21` [compound 397, 6-{[(3R)-1-(Cyclopropylcarbonyl)pyrrolidin-3-yl]methyl}-5-[5-(1-methyl-1H-indazol-5-yl)pyridin-2-yl]-4,6-diazaspiro[2.4]hept-4-en-7-one], the “Human FASN pIC50” value ([1]; hFASN enzyme full length, scintillation proximity assay, "~" = standard error of pIC50 larger than 0.5) is reported as 6.1, the inhibition at 10 µM [1] is reported as 90% and the IC50 [2] is reported as > 10000 nM. For the same compound, the IC50 [3] was 1550 nM, the IC50 [4] was 3020 nM and the IC50 [5] was ~3890 nM.

An inhibition at 10 µM [1] of 98%, an IC50 [1] of 178 nM and an IC50 [2] of 5890 nM were found for `Cn1ccc(-c2ccc(-c3ccc(C4=NC5(CC5)C(=O)N4CC4CN(C(=O)C5CC5)C4)c(F)c3)cc2)n1` [compound 547, 6-{[1-(Cyclopropylcarbonyl)azetidin-3-yl]methyl}-5-[3-fluoro-4′-(1-methyl-1H-pyrazol-3-yl)biphenyl-4-yl]-4,6-diazaspiro[2.4]hept-4-en-7-one] in this work. It also gave an IC50 [3] of ~174 nM, an IC50 [4] of 1000 nM and an IC50 [5] of 676 nM.

For `O=C(C1CC1)N1CC[C@@H](CN2C(=O)C3(CC3)N=C2c2ccc(-c3ccc4ncccc4c3)cc2F)C1` [compound 248, (R)-6-((1-(cyclopropanecarbonyl)pyrrolidin-3-yl)methyl)-5-(2-fluoro-4-(quinolin-6-yl)phenyl)-4,6-diazaspiro[2.4]hept-4-en-7-one], the inhibition at 10 µM [1] was 99%, the IC50 [1] was 69.2 nM and the IC50 [2] was > 10000 nM. For the same compound, the IC50 [3] was 513 nM, the IC50 [4] was 479 nM and the IC50 [5] was 148 nM.

An inhibition at 10 µM [1] of 88%, an IC50 [1] of 162 nM and an IC50 [2] of 6170 nM were found for `Cc1cc2cc(-c3ccc(C4=NC5(CC5)C(=O)N4CC4CN(C(=O)C5CC5)C4)c(F)c3)ccc2s1` [compound 548, 6-{[1-(Cyclopropylcarbonyl)azetidin-3-yl]methyl}-5-[2-fluoro-4-(2-methyl-1-benzothiophen-5-yl)phenyl]-4,6-diazaspiro[2.4]hept-4-en-7-one] in this work. For the same compound, the IC50 [3] was ~295 nM, the IC50 [4] was 1100 nM and the IC50 [5] was 166 nM.

`Cc1cc(C2=NC3(CC3)C(=O)N2CC2CN(C(=O)C3CC3)C2)ccc1-c1ccc2[nH]ccc2c1` [compound 435, 6-{[1-(Cyclopropylcarbonyl)azetidin-3-yl]methyl}-5-[4-(1H-indol-5-yl)-3-methylphenyl]-4,6-diazaspiro[2.4]hept-4-en-7-one] was tested, and the inhibition at 10 µM [1] was 91%, the IC50 [1] was 263 nM and the IC50 [2] was > 10000 nM. The IC50 [3] was ~933 nM, the IC50 [4] was 3470 nM and the IC50 [5] was 1230 nM.

In the case of `O=C([C@H]1CCCO1)N1CC(CN2C(=O)C3(CCOC3)N=C2c2ccc(-c3ccc4cccnc4c3)cc2)C1` (stereo partly drawn) [compound 716, 2-(4-Quinolin-7-ylphenyl)-3-({1-[(2R)-tetrahydro-furan-2-ylcarbonyl]azetidin-3-yl}methyl)-7-oxa-1,3-diazaspiro[4.4]non-1-en-4-one], the inhibition at 10 µM [1] is reported as 88%, the IC50 [1] is reported as 398 nM and the IC50 [2] is reported as > 10000 nM. It also gave an IC50 [3] of 513 nM, an IC50 [4] of 5500 nM and an IC50 [5] of 1050 nM.

For `Cc1sc2ccc(-c3ccc(C4=NC5(CC5)C(=O)N4C[C@@H]4CCN(C(=O)C5CC5)C4)cc3)cc2c1C` [compound 296, (R)-6-((1-(cyclopropanecarbonyl)pyrrolidin-3-yl)methyl)-5-(4-(2,3-dimethylbenzo[b]thiophen-5-yl)phenyl)-4,6-diazaspiro[2.4]hept-4-en-7-one], the inhibition at 10 µM [1] was 106%, the IC50 [1] was 38.9 nM and the IC50 [2] was > 10000 nM. For the same compound, the IC50 [3] was ~2090 nM, the IC50 [4] was 3630 nM and the IC50 [5] was 81.3 nM.

`Cn1ncc2cc(-c3ccc(C4=NC5(CC5)C(=O)N4C[C@@H]4CCN(C(=O)C5COC5)C4)cc3)ccc21` [compound 490, 5-[4-(1-Methyl-1H-indazol-5-yl)phenyl]-6-{[(3R)-1-(oxetan-3-ylcarbonyl)pyrrolidin-3-yl]methyl}-4,6-diazaspiro[2.4]hept-4-en-7-one] was tested, and the inhibition at 10 µM [1] was 81%, the IC50 [1] was 331 nM and the IC50 [2] was > 10000 nM. It also gave an IC50 [3] of 93.3 nM, an IC50 [4] of 1050 nM and an IC50 [5] of 363 nM.

In the case of `CCC(=O)N1CC(CN2C(=O)C3(CC3)N=C2c2ccc(-c3ccc4c(cnn4C)c3)cc2C)C1` [compound 471, 5-[2-Methyl-4-(1-methyl-1H-indazol-5-yl)phenyl]-6-[(1-propanoylazetidin-3-yl)methyl]-4,6-diazaspiro[2.4]hept-4-en-7-one], the inhibition at 10 µM [1] is reported as 99%, the IC50 [1] is reported as 182 nM and the IC50 [2] is reported as > 10000 nM. It also gave an IC50 [3] of 417 nM, an IC50 [4] of 1290 nM and an IC50 [5] of 331 nM.

An inhibition at 10 µM [1] of 97%, an IC50 [1] of 372 nM and an IC50 [2] of 4790 nM were found for `COc1nn(C)c2ccc(-c3ccc(C4=NC5(CC5)C(=O)N4C[C@@H]4CCN(C(=O)C5CC5)C4)cc3)cc12` [compound 557, 6-{[(3R)-1-(Cyclopropylcarbonyl)pyrrolidin-3-yl]methyl}-5-[4-(3-methoxy-1-methyl-1H-indazol-5-yl)phenyl]-4,6-diazaspiro[2.4]hept-4-en-7-one] in this work. It also gave an IC50 [3] of 200 nM, an IC50 [4] of 1380 nM and an IC50 [5] of 427 nM.

`Cc1cc(-c2ccc3c(cnn3C)c2)ccc1C1=NC2(CC2)C(=O)N1CC1CN(C(=O)C(C)C)C1` [compound 473, 5-[2-Methyl-4-(1-methyl-1H-indazol-5-yl)phenyl]-6-{[1-(2-methylpropanoyl)azetidin-3-yl]methyl}-4,6-diazaspiro[2.4]hept-4-en-7-one] was tested, and the inhibition at 10 µM [1] was 95%, the IC50 [1] was 269 nM and the IC50 [2] was > 10000 nM. The IC50 [3] was ~275 nM, the IC50 [4] was 2190 nM and the IC50 [5] was 525 nM.

`Cc1cc(-c2ccc3c(cnn3C)c2)ccc1C1=NC2(CC2)C(=O)N1CC1CN(C(=O)C2(CO)CC2)C1` [compound 480, 6-[(1-{[1-(Hydroxymethyl)cyclopropyl]carbonyl}azetidin-3-yl)methyl]-5-[2-methyl-4-(1-methyl-1H-indazol-5-yl)phenyl]-4,6-diazaspiro[2.4]hept-4-en-7-one] was tested, and the inhibition at 10 µM [1] was 97%, the IC50 [1] was 155 nM and the IC50 [2] was > 10000 nM. It also gave an IC50 [3] of ~257 nM, an IC50 [4] of 1150 nM and an IC50 [5] of 525 nM.
